Data published in patent US8178506B2, “Oligomeric compounds and compositions for use in modulation of small non-coding RNAs” (Regulus Therapeutics Inc., priority 2003, dated 2012).
In the oligonucleotide strings, read from the 5' end, every base follows the letter of its sugar. An asterisk marks phosphorothioate; unmarked linkages are phosphodiester. Other units and linkages are bracketed, terminal groups are in braces. A string of capitals states the bases alone. e = 2'-O-(2-methoxyethyl) (MOE); [5mC] = 5-methylcytosine

Experiments:
aP2 = aP2 mRNA expression in adipocytes (real-time PCR); assay type: cell-based, human; conditions: differentiating adipocytes transfected with oligomeric compound; Table 75
PPARγ = PPARγ mRNA expression in adipocytes (real-time PCR); assay type: cell-based, human; conditions: differentiating adipocytes transfected with oligomeric compound; Table 75
HuVECs = test: Endothelial tube formation assay in HuVECs; conditions: 75 nM oligomeric compound, Table 59
Glut4 = Glut4 mRNA expression in adipocytes (real-time PCR); assay type: cell-based, human; conditions: differentiating adipocytes transfected with oligomeric compound; Table 75
HSL = HSL mRNA expression in adipocytes (real-time PCR); assay type: cell-based, human; conditions: differentiating adipocytes transfected with oligomeric compound; Table 75
IGFBP-1 = IGFBP-1 mRNA expression in HepG2 cells; assay type: cell-based, human; conditions: for IGFBP1 mRNA expression: Experiment 2, insulin treated: HepG2 cells transfected with oligomeric compound, 1 nM insulin for four hours, UTC + 1 nM insulin = 100; for IGFBP1 mRNA: HepG2 cells, Experiment 1, basal (no insulin), four hours, UTC = 100

Substance: 327959 (antisense e[5mC]*eA*eG*e[5mC]*e[5mC]*eG*e[5mC]*eT*eG*eT*e[5mC]*eA*e[5mC]*eA*e[5mC]*eG*e[5mC]*eA*e[5mC]*eA*eG) [compound 327959]
- aP2 mRNA (aP2): 24 percentage of untreated control (UTC)
- PPAR gamma mRNA (PPARγ): 65 percentage of untreated control (UTC)
- % Activity Relative to UTC (tube formation) (HuVECs): 40.0%
- GLUT4 mRNA (Glut4): 152 percentage of untreated control (UTC)
- HSL mRNA (HSL): 11 percentage of untreated control (UTC)
- IGFBP1 mRNA expression (IGFBP-1): 141
- IGFBP1 mRNA (IGFBP-1): 124

Substance: 327963 (antisense eA*eA*e[5mC]*e[5mC]*eT*eA*eT*e[5mC]*e[5mC]*eT*eG*eA*eA*eT*eT*eA*e[5mC]*eT*eT*eG*eA*eA) [compound 327963]
- aP2 mRNA (aP2): 75 percentage of untreated control (UTC)
- PPAR gamma mRNA (PPARγ): 91 percentage of untreated control (UTC)
- % Activity Relative to UTC (tube formation) (HuVECs): 93.3%
- GLUT4 mRNA (Glut4): 91 percentage of untreated control (UTC)
- HSL mRNA (HSL): 89 percentage of untreated control (UTC)
- IGFBP1 mRNA expression (IGFBP-1): 111
- IGFBP1 mRNA (IGFBP-1): 108
